Laboratory results published in US20050100507A1, “Chemotactic peptide antagonists for imaging sites of inflammation” (Bracco Imaging S.p.A., priority 1998, published 2005).
Square brackets hold non-standard residues; d marks the D form. Ends that are not written are not given here. Peptide text beside a SMILES is read from it. * marks the point of attachment. 3‑but‑1‑enoxycarbonyl = 3-but-1-enoxycarbonyl (N-terminal capping group); 2‑quinoxazoyl = 2-quinoxazoyl (N-terminal capping group); N‑phenyl‑N‑methylcarbamoyl = CN(C(=O)*)c1ccccc1; trans‑cinnamoyl = O=C(/C=C/c1ccccc1)*; Cyclopropanecarbonyl = O=C(C1CC1)*; iso‑Boc = not defined here; Nle = CCCC[C@H](N)C(=O)O; 2Furoyl = O=C(c1ccco1)*; Boc = CC(C)(C)OC(=O)*; For = O=C*

Key:
elicited rat PMNs [1] = assay: Myeloperoxidase release in elicited rat PMNs co-stimulated with 0.1 uM fMLF; assay type: cell-based; details: for antagonist function on MPO release in fMLF stimulated rat PMNs: 0.1 uM fMLF, inhibition at 10 uM, result in words; for % Control MPO release (1 uM capping group + 0.1 uM fMLF): 1 uM test peptide + 0.1 uM fMLF; for % Control MPO release (1 uM capping group + 0.1 uM fMLF) / % Control MPO Release (10 uM capping group + 0.1 uM fMLF): ± S.E.M.; for % Control MPO Release (10 uM capping group + 0.1 uM fMLF): 10 uM test peptide + 0.1 uM fMLF
Procedure: (§1) Animals were sacrificed via administration of CO2 4 hours following peritoneal injection of 10 mL of 0.5% (w/v) oyster glycogen warmed to room temperature. Leukocyte harvesting via peritoneal lavage was performed using 20 mL of Hanks' buffered salt solution (HBSS−) containing 10 mM ethylene-diaminetetra-acetic acid (EDTA) disodium salt followed by a second lavage with 10 mL of HBSS− containing 10 mM EDTA. Exactly the same technique was performed on all rats with washes of the peritoneum prior to aspiration of samples approximating 1 minute. The volume of fluid recovered from each rat was approximately 20-25 mL and bloody lavages visibly containing significant red blood cell (RBC) populations were discarded.
(§2) Neutrophils isolated by peritoneal lavage were washed twice with 1 mL of HBSS− (without calcium chloride, magnesium chloride and magnesium sulfate) and centrifuged for ten minutes at 2000 rpms following each wash. PMNs utilized in functional assays were centrifuged at 25° C. while those used in binding assays were centrifuged at 4° C. to prevent internalization. A cold H2O RBC lysis was then performed with the addition of 9 mL of sterile ice-cold H2O and 1 mL of phosphate buffered saline (PBS) solution containing 0.1 M phosphate buffer, 0.027 M KCl and 1.37 M NaCl following resuspension of the sample in 1 mL of HBSS. Centrifugation was subsequently performed for ten minutes at 1600 rpms. White blood cell (WBC) differential stain containing saline, 2% acidic acid and phenol violet dye was used to identify the neutrophil population and trypan blue exclusion was used to determine viability of cells. As previously reported, 98% of leukocytes were neutrophils and approximately 95% of the cells were viable (Chen et al., 1996).
0.5×10^6 PMNs per sample were incubated in 96-well Millipore Multiscreen 0.65 um filter plates. […] Following a 30 minute incubation period at room temperature, the supernatant was collected into a 96-well polypropylene plate with the Millipore vacuum apparatus. A stock solution of o-phenylenediamine (OPD) was made to contain 2.5 mg of OPD, 5 ul of H2O2 and 10 mL HBSS+ and supernatant samples were subsequently incubated with 50 uL of OPD solution. The reaction was stopped after 2 minutes by the addition of 2.5M H2SO4. Photometric analysis was performed with the Thermomax Microplate Reader with optical density (O.D.490) values being read at a wavelength of 490 nm. Absorbance was measured against a blank containing 150 μl of HBSS+ which was subtracted from wells containing cells and the various treatments. MPO release was expressed as a percentage of the total release of myeloperoxidase in control wells containing cells ±fMLF.

Rat FPR = target: T1, Rat FPR (Rattus norvegicus, UniProt D4A7Q2); assay: Competition binding with 6 nM 3H-fMLF to elicited rat PMNs; details: 6 nM 3H-fMLF, result in words; for competition binding of N-terminal modified NleLFK peptides (FIG. 8): peptides at 1 uM and 10 uM
T1 construct: endogenous in cells; host or cells: glycogen-elicited peritoneal neutrophils (PMNs) of Sprague-Dawley rats
T1 sequence (D4A7Q2 1-355): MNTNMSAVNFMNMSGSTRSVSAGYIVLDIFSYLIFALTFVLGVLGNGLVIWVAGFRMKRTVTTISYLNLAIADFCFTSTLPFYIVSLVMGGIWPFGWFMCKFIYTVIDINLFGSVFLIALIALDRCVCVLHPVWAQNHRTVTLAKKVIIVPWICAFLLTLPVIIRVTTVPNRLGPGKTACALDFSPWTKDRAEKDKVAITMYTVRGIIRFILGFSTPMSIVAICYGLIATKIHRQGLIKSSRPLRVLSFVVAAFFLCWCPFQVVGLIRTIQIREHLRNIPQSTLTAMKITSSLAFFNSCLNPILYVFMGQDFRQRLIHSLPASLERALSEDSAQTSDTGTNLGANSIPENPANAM
Procedure: as §1, §2
Competition binding assays for N-terminal capping groups and Re-libraries were conducted with 6 nM ^3H-fMLP in addition to the unlabelled competing analogue added at 1.0 uM and 10 uM to each well. […] Total binding in the competition assays was assessed in the presence of 1.0×10^6 PMNs per sample while non-specific binding was determined in the absence of cells. Each condition was performed in quadruplicate. Total activity added to each sample was determined from cpms obtained from a sample containing 6 nM ^3H-fMLF. Data was expressed as specific binding in fmols and converted to percent of total ^3H-fMLF binding (% control).
After a 1 hour incubation period at 4° C., the samples were harvested with the Tomtec Mach III Cell Harvester by vacuum aspiration onto 1.5 um pore size Skatron glass-fibre filter mats pre-treated with 0.1% polyethylenimine (w/v) for approximately 24 hours. Sample wells received three consecutive 12 second washes with 0.9% saline solution and 5 mL of liquid scintillation fluid was added to collected filters. Filters were counted for 2 minutes in the Beckman β-counter following exposure to scintillation fluid for 15 hours. Data was expressed in terms of specific binding in fmols converted to percent of total ^3H-fMLF binding (% control).
(§3) The curve-fitting program Prism was used to calculate KD, IC50 and EC50 values by fitting data to the one-site binding equations A, B and C respectively. • A. Equation: One site binding (hyperbola) Y=Bmax*X/(KD+X) • B. Equation: One site competition Y=Bottom+(Top−Bottom)/(1+10^(X−LogIC50)); with x=log (concentration) and y=binding • C. […] Additionally, Graph fit software was used to perform Scatchard analysis of saturation binding data and to confirm KD and Bmax values generated by Prism software.

elicited rat PMNs [2] = assay type: cell-based; details: for % Control (1 uM) / % Control (10 uM): MPO release, PMNs without fMLF, ± S.E.M.; for % Control (1 uM): test peptide 1 uM; for % Control (10 uM): test peptide 10 uM; for EC50: 4 h
Procedure: as §1, §2
0.5×10^6 PMNs per sample were incubated in 96-well Millipore Multiscreen 0.65 um filter plates. In a final volume of 150 uL, 50 uL of the respective fMLP analogues (10 uM to 1 pM) and/or fMLP ([…]) were incubated with isolated PMNs pre-treated with cytochalasin B (5 ug/mL) for 10 minutes. Following a 30 minute incubation period at room temperature, the supernatant was collected into a 96-well polypropylene plate with the Millipore vacuum apparatus. A stock solution of o-phenylenediamine (OPD) was made to contain 2.5 mg of OPD, 5 ul of H2O2 and 10 mL HBSS+ and supernatant samples were subsequently incubated with 50 uL of OPD solution. The reaction was stopped after 2 minutes by the addition of 2.5M H2SO4. Photometric analysis was performed with the Thermomax Microplate Reader with optical density (O.D.490) values being read at a wavelength of 490 nm. Absorbance was measured against a blank containing 150 μl of HBSS+ which was subtracted from wells containing cells and the various treatments. MPO release was expressed as a percentage of the total release of myeloperoxidase in control wells containing cells ±fMLF.
as §3

Q: What does the source list for “Capping Group 10: N-phenyl-N-methylcarbamoyl N-terminal capping group attached to peptide NleLFK ({N‑phenyl‑N‑methylcarbamoyl}-[Nle]LFK)”?
A: antagonist function on MPO release in fMLF stimulated rat PMNs (elicited rat PMNs [1]): exhibited antagonist function in fMLF stimulated cells; % Control MPO release (1 uM capping group + 0.1 uM fMLF) (elicited rat PMNs [1]): 171.2 ± 6.3 % control; % Control MPO Release (10 uM capping group + 0.1 uM fMLF) (elicited rat PMNs [1]): 121.3 ± 23.9 % control; competition binding of N-terminal modified NleLFK peptides (FIG. 8) (Rat FPR): did not significantly decrease the amount of ^3H-fMLF binding; % Control (1 uM) (elicited rat PMNs [2]): 94.7 ± 20.4 % control; % Control (10 uM) (elicited rat PMNs [2]): 68.0 ± 17.4 % control

Q: Which results are given for “Capping Group 7: 3-but-1-enoxycarbonyl N-terminal capping group attached to peptide NleLFK ({3‑but‑1‑enoxycarbonyl}-[Nle]LFK)”?
A: % Control (1 uM) (elicited rat PMNs [2]): 133.8 ± 13.3 % control; % Control (10 uM) (elicited rat PMNs [2]): 229.3 ± 13.3 % control

Q: How did the “% Control (1 uM)” value (elicited rat PMNs [2]) turn out when “Capping Group 4: Phenylthioacetyl N-terminal capping group attached to peptide NleLFK (phenylthioacetyl-[Nle]LFK)” was run?
A: 138.7 ± 28.6 % control

Q: And the “% Control (10 uM)” value (elicited rat PMNs [2])?
A: 119.7 ± 20.3 % control

Q: “N-t-BocMLFK: known antagonist used as standard in MPO release assay (Boc-MLFK) [reference compound]” was tested. Which “% Control (1 uM)” value (elicited rat PMNs [2]) did it give?
A: 89.8 ± 32.5 % control

Q: And the “% Control (10 uM)” value (elicited rat PMNs [2])?
A: 86.7 ± 31.1 % control

Q: What does the source list for “Capping Group 14: 2-quinoxazoyl N-terminal capping group attached to peptide NleLFK ({2‑quinoxazoyl}-[Nle]LFK)”?
A: antagonist function on MPO release in fMLF stimulated rat PMNs (elicited rat PMNs [1]): significant inhibition; % Control MPO release (1 uM capping group + 0.1 uM fMLF) (elicited rat PMNs [1]): 323.2 ± 16.8 % control; % Control MPO Release (10 uM capping group + 0.1 uM fMLF) (elicited rat PMNs [1]): 239.8 ± 9.0 % control; % Control (1 uM) (elicited rat PMNs [2]): 117.2 ± 18.6 % control; % Control (10 uM) (elicited rat PMNs [2]): 129.8 ± 6.0 % control

Q: Which EC50 (elicited rat PMNs [2]) does the source give for `CSCC[C@H](NC=O)C(=O)N[C@@H](CC(C)C)C(=O)N[C@@H](Cc1ccccc1)C(=O)O` [fMLF, N-formyl-methionyl-leucyl-phenylalanine, reference compound] here?
A: 110 nM

Q: “Capping Group 15: trans-cinnamoyl N-terminal capping group attached to peptide NleLFK ({trans‑cinnamoyl}-[Nle]LFK)” was tested. Which “% Control (1 uM)” value (elicited rat PMNs [2]) did it give?
A: 133.1 ± 10.3 % control

Q: What about the “% Control (10 uM)” value (elicited rat PMNs [2]) of the same compound?
A: 195.8 ± 14.3 % control

Q: How did the “antagonist function on MPO release in fMLF stimulated rat PMNs” value (elicited rat PMNs [1]) turn out when “iso-BocMLFK: known antagonist, fMLP peptide analogue synthesized in-house ({iso‑Boc}-MLFK; reading uncertain) [reference compound]” was run?
A: significantly inhibiting fMLF-stimulated MPO release

Q: What about the “% Control MPO release (1 uM capping group + 0.1 uM fMLF)” value (elicited rat PMNs [1]) of the same compound?
A: 215.4 ± 66.3 % control

Q: And the “% Control MPO Release (10 uM capping group + 0.1 uM fMLF)” value (elicited rat PMNs [1])?
A: 179.9 ± 50.6 % control

Q: And the “% Control (1 uM)” value (elicited rat PMNs [2])?
A: 99.6 ± 16.5 % control

Q: What about the “% Control (10 uM)” value (elicited rat PMNs [2]) of the same compound?
A: 94.7 ± 20.2 % control

Q: Which results are given for “Capping Group 2: 2-methoxyacetyl N-terminal capping group attached to peptide NleLFK ({2‑methoxyacetyl}-[Nle]LFK)”?
A: % Control (1 uM) (elicited rat PMNs [2]): 95.0 ± 15.7 % control; % Control (10 uM) (elicited rat PMNs [2]): 97.1 ± 37.1 % control

Q: For “cycloproylcarbonyl-NleLFK (Cyclopropanecarbonyl-[Nle]LFK) [Capping Group 17]”, which “inhibition of 3H-fMLF binding at 10 uM compared with iso-BocMLFK (FIG. 8)” value (Rat FPR; peptide 10 uM) is on record?
A: inhibited ^3H-fMLF binding to a degree comparable with known antagonist iso-BocMLFK

Q: And the “competition binding of N-terminal modified NleLFK peptides (FIG. 8)” value (Rat FPR; listed as 17)?
A: do not nullify binding affinity

Q: What about the “competition binding of N-terminal modified NleLFK peptides (FIG. 8)” value (Rat FPR; listed as cycloproylcarbonyl-NleLFK) of the same compound?
A: inhibit ^3H-fMLF binding

Q: What about the “% Control (1 uM)” value (elicited rat PMNs [2]) of the same compound?
A: 108.0 ± 14.5 % control

Q: And the “% Control (10 uM)” value (elicited rat PMNs [2])?
A: 91.8 ± 16.3 % control

Q: With “Capping Group 12: 2-acetamido-5-thiazolesulfonyl N-terminal capping group attached to peptide NleLFK ({2‑acetamido‑5‑thiazolesulfonyl}-[Nle]LFK)” as the compound, how does the “% Control (1 uM)” value (elicited rat PMNs [2]) read?
A: 117.5 ± 7.8 % control

Q: What about the “% Control (10 uM)” value (elicited rat PMNs [2]) of the same compound?
A: 175.5 ± 12.0 % control

Q: For `CSCC[C@H](NC=O)C(=O)N[C@@H](CC(C)C)C(=O)N[C@@H](Cc1ccccc1)C(=O)N[C@@H](CCCCN)C(=O)O` [fMLFK, N-formyl-methionyl-leucyl-phenylalanyl-lysine, reference compound] (For-MLFK-OH), which EC50 (elicited rat PMNs [2]) is on record?
A: 140 nM

Q: “Capping Group 3: Furoyl N-terminal capping group attached to peptide NleLFK (2Furoyl-[Nle]LFK)” was tested. Which “% Control (1 uM)” value (elicited rat PMNs [2]) did it give?
A: 93.0 ± 9.0 % control

Q: And the “% Control (10 uM)” value (elicited rat PMNs [2])?
A: 102.5 ± 9.0 % control
